# Several values for one entry are separate records, joined by “and”; a condition that tells them apart may be missing. Identical values can stand only once. Activity calls are given as the source filed them. The calls are words filed in the database; no cut-off is given here.
# Experiments:
# Kasumi 1 [1] = assay: Cytotoxicity against human Kasumi 1 cells assessed as reduction in cell viability at 50 uM incubated for 24 hrs by MTT assay relative to control; type: functional
# Kasumi 1 [2] = assay: Cytotoxicity against human Kasumi 1 cells harboring chromosomal translocation(8;21) assessed as reduction in cell viability incubated for 24 hrs by MTT assay; type: functional, cell-based; conditions: Kasumi 1, 24 h
# THP-1 = assay: Cytotoxicity against human THP-1 cells harboring chromosomal translocation(9;11) assessed as reduction in cell viability incubated for 24 hrs by MTT assay; type: functional, cell-based; conditions: THP-1, 24 h
# CAL-27 = assay: Cytotoxicity against human CAL-27 cells assessed as cell viability at 1 to 50 uM incubated for 24 hrs by MTT assay; type: functional, cell-based; conditions: dose 1-50 µM
# MDA-MB-231 = assay: Cytotoxicity against human MDA-MB-231 cells assessed as cell viability at 1 to 50 uM incubated for 24 hrs by MTT assay; type: functional, cell-based; conditions: dose 1-50 µM
# A549 = assay: Cytotoxicity against human A549 cells assessed as cell viability at 1 to 50 uM incubated for 24 hrs by MTT assay; type: functional, cell-based; conditions: dose 1-50 µM
# ARPE-19 = assay: Cytotoxicity against human ARPE-19 cells assessed as reduction in cell viability incubated for 24 hrs by MTT assay; type: toxicity, cell-based; conditions: arpe-19, 24 h
# MCF-10A = assay: Cytotoxicity against human MCF-10A cells assessed as cell viability incubated for 24 hrs by MTT assay; type: toxicity, cell-based
# [3] = Cytotoxicity against human Oral epithelial cells assessed as cell viability incubated for 24 hrs by MTT assay; type: toxicity, cell-based
# Kasumi 1 [4] = assay: Induction of cell cycle arrest in human Kasumi 1 cells assessed as increase in cells at G2/M phase at IC50 concentration incubated for 24 hrs by PI staining based flow cytometric analysis; type: functional
# Kasumi 1 [5] = assay: Induction of cell cycle arrest in human Kasumi 1 cells assessed as decrease in cells at S phase at IC50 concentration incubated for 24 hrs by PI staining based flow cytometric analysis; type: functional
# Kasumi 1 [6] = assay: Induction of cell cycle arrest in human Kasumi 1 cells assessed as increase in cells at G1 phase at IC50 concentration incubated for 24 hrs by PI staining based flow cytometric analysis (reference value: 66.25 %); type: functional
# Kasumi 1 [7] = assay: Induction of cell cycle arrest in human Kasumi 1 cells assessed as increase in cells at S phase at IC50 concentration incubated for 24 hrs by PI staining based flow cytometric analysis (reference value: 27.09 %); type: functional
# Kasumi 1 [8] = assay: Induction of cell cycle arrest in human Kasumi 1 cells assessed as increase in cells at G2 phase at IC50 concentration incubated for 24 hrs by PI staining based flow cytometric analysis (reference value: 6.65 %); type: functional
# Kasumi 1 [9] = assay: Induction of apoptosis in human Kasumi 1 cells assessed as viable cells at IC50 concentration incubated for 24 hrs by Annexin V/PI staining based flow cytometric analysis (reference value: 95.43 %); type: functional
# Kasumi 1 [10] = assay: Induction of apoptosis in human Kasumi 1 cells assessed as early apoptotic cells at IC50 concentration incubated for 24 hrs by Annexin V/PI staining based flow cytometric analysis (reference value: 2.38 %); type: functional
# Kasumi 1 [11] = assay: Induction of apoptosis in human Kasumi 1 cells assessed as late apoptotic cells at IC50 concentration incubated for 24 hrs by Annexin V/PI staining based flow cytometric analysis (reference value: 2.07 %); type: functional
# Kasumi 1 [12] = assay: Induction of apoptosis in human Kasumi 1 cells assessed as necrotic apoptotic cells at IC50 concentration incubated for 24 hrs by Annexin V/PI staining based flow cytometric analysis (reference value: 0.12 %); type: functional
# Kasumi 1 [13] = assay: Downregulation of MYCN gene expression in human Kasumi 1 cells at IC50 concentration incubated for 24 hrs by RNA sequencing analysis; type: functional, cell-based
# Kasumi 1 [14] = assay: Downregulation of BCL6 gene expression in human Kasumi 1 cells at IC50 concentration incubated for 24 hrs by RNA sequencing analysis; type: functional, cell-based
# Kasumi 1 [15] = assay: Downregulation of PIM1 gene expression in human Kasumi 1 cells at IC50 concentration incubated for 24 hrs by RNA sequencing analysis; type: functional, cell-based
# Kasumi 1 [16] = assay: Downregulation of CDK1 protein expression in human Kasumi 1 cells at IC50 concentration incubated for 24 hrs by LC-MS/MS analysis; type: functional, cell-based
# Kasumi 1 [17] = assay: Downregulation of MELK protein expression in human Kasumi 1 cells at IC50 concentration incubated for 24 hrs by LC-MS/MS analysis; type: functional, cell-based
# Kasumi 1 [18] = assay: Downregulation of UGFR1 gene expression in human Kasumi 1 cells at IC50 concentration incubated for 24 hrs by RNA sequencing analysis; type: functional, cell-based
# Kasumi 1 [19] = assay: Downregulation of HMMR gene expression in human Kasumi 1 cells at IC50 concentration incubated for 24 hrs by RNA sequencing analysis; type: functional, cell-based
# Kasumi 1 [20] = assay: Downregulation of CD109 gene expression in human Kasumi 1 cells at IC50 concentration incubated for 24 hrs by RNA sequencing analysis; type: functional, cell-based
# Kasumi 1 [21] = assay: Upregulation of NR5A1 gene expression in human Kasumi 1 cells at IC50 concentration incubated for 24 hrs by RNA sequencing analysis; type: functional, cell-based
# Kasumi 1 [22] = assay: Upregulation of KLF2 gene expression in human Kasumi 1 cells at IC50 concentration incubated for 24 hrs by RNA sequencing analysis; type: functional, cell-based
# Kasumi 1 [23] = assay: Upregulation of DACH1 gene expression in human Kasumi 1 cells at IC50 concentration incubated for 24 hrs by RNA sequencing analysis; type: functional, cell-based
# Kasumi 1 [24] = assay: Upregulation of CSF3R gene expression in human Kasumi 1 cells at IC50 concentration incubated for 24 hrs by RNA sequencing analysis; type: functional, cell-based
# Kasumi 1 [25] = assay: Upregulation of interferon-alpha response related genes in human Kasumi 1 cells at IC50 concentration incubated for 24 hrs by RNA sequencing analysis; type: functional, cell-based
# Kasumi 1 [26] = assay: Upregulation of interferon-gamma response related genes in human Kasumi 1 cells at IC50 concentration incubated for 24 hrs by RNA sequencing analysis; type: functional, cell-based
# Kasumi 1 [27] = assay: Downregulation of KRAS signaling pathway related genes in human Kasumi 1 cells at IC50 concentration incubated for 24 hrs by RNA sequencing analysis; type: functional, cell-based
# Kasumi 1 [28] = assay: Downregulation of E2F target related genes in human Kasumi 1 cells at IC50 concentration incubated for 24 hrs by RNA sequencing analysis; type: functional, cell-based
# Kasumi 1 [29] = assay: Downregulation of G2M checkpoint related genes in human Kasumi 1 cells at IC50 concentration incubated for 24 hrs by RNA sequencing analysis; type: functional, cell-based
# Kasumi 1 [30] = assay: Downregulation of TNF-alpha signaling related genes in human Kasumi 1 cells at IC50 concentration incubated for 24 hrs by RNA sequencing analysis; type: functional, cell-based
# Kasumi 1 [31] = assay: Downregulation of KRAS signaling related genes in human Kasumi 1 cells at IC50 concentration incubated for 24 hrs by RNA sequencing analysis; type: functional, cell-based
# Kasumi 1 [32] = assay: Downregulation of estrogen pathway related genes in human Kasumi 1 cells at IC50 concentration incubated for 24 hrs by RNA sequencing analysis; type: functional, cell-based
# Kasumi 1 [33] = assay: Effect on oxidative phosphorylation related protein expression in human Kasumi 1 cells by GSEA; type: functional, cell-based
# Kasumi 1 [34] = assay: Effect on MYC target related protein expression in human Kasumi 1 cells by GSEA; type: functional, cell-based
# Kasumi 1 [35] = assay: Effect on E2F target related protein expression in human Kasumi 1 cells by GSEA; type: functional, cell-based
# Kasumi 1 [36] = assay: Effect on glycolysis pathway related protein expression in human Kasumi 1 cells by GSEA; type: functional, cell-based
# Kasumi 1 [37] = assay: Effect on mTORC1 signaling related protein expression in human Kasumi 1 cells by GSEA; type: functional, cell-based
# Kasumi 1 [38] = assay: Effect on hypoxia pathway related protein expression in human Kasumi 1 cells by GSEA; type: functional, cell-based
# Kasumi 1 [39] = assay: Effect on adipogenesis pathway related protein expression in human Kasumi 1 cells by GSEA; type: functional, cell-based
smiles,measurement,setting,value
CCCCCCCCCCCCN1C(=O)C(C23CC4CC(CC(C4)C2)C3)Nc2ccccc21 (configuration not stated),Activity,Kasumi 1 [1],>30%
CC(C)CCCC(C)CCN1C(=O)C(C23CC4CC(CC(C4)C2)C3)Nc2ccccc21 (configuration not stated),Activity,Kasumi 1 [1],>30%
O=C1C(C23CC4CC(CC(C4)C2)C3)Nc2ccccc2N1CC1CC1 (configuration not stated),Activity,"Kasumi 1 [1]; 24 h, 50 µM",<30% and >30%
same,IC50,Kasumi 1 [2],47 µM
same,IC50,THP-1,> 50 µM
C=CCN1C(=O)C(C23CC4CC(CC(C4)C2)C3)Nc2ccccc21 (configuration not stated),Activity,Kasumi 1 [1],<30%
same,IC50,Kasumi 1 [2],37.5 µM
same,IC50,THP-1,> 50 µM
Cc1ccc(CN2C(=O)C(C34CC5CC(CC(C5)C3)C4)Nc3ccccc32)cc1 (configuration not stated),Activity,Kasumi 1 [1],>30%
CSc1ccc(CN2C(=O)C(C34CC5CC(CC(C5)C3)C4)Nc3ccccc32)cc1 (configuration not stated),Activity,Kasumi 1 [1],>30%
O=C1C(C23CC4CC(CC(C4)C2)C3)Nc2ccccc2N1Cc1ccc(Br)cc1 (configuration not stated),Activity,Kasumi 1 [1],>30%
O=C1C(C23CC4CC(CC(C4)C2)C3)Nc2ccccc2N1c1ccc(-c2ccccc2)cc1 (configuration not stated),Activity,Kasumi 1 [1],>30%
Cc1ccc(CN2C(=O)C(C34CC5CC(CC(C5)C3)C4)Nc3cc(-c4ccc5c(c4)NC(C46CC7CC(CC(C7)C4)C6)C(=O)N5Cc4ccc(C)cc4)ccc32)cc1 (configuration not stated),Activity,Kasumi 1 [1],>30%
C=CCCCCN1C(=O)C(C23CC4CC(CC(C4)C2)C3)Nc2ccccc21 (configuration not stated),Activity,Kasumi 1 [1],>30%
CN1C(=O)C(C23CC4CC(CC(C4)C2)C3)Nc2ccccc21 (configuration not stated),Activity,Kasumi 1 [1],>30%
CCN1C(=O)C(C23CC4CC(CC(C4)C2)C3)Nc2ccccc21 (configuration not stated),Activity,Kasumi 1 [1],>30%
O=C1C(C23CC4CC(CC(C4)C2)C3)Nc2ccccc2N1Cc1ccccc1 (configuration not stated),Activity,Kasumi 1 [1],>30%
O=C1C(C23CC4CC(CC(C4)C2)C3)Nc2ccccc2N1c1ccccc1 (configuration not stated),Activity,CAL-27,inactive
same,Activity,MDA-MB-231,inactive
same,Activity,A549,inactive
same,Activity,Kasumi 1 [1],<30%
same,Activity,ARPE-19,Non-toxic
same,Activity,MCF-10A,Non-toxic
same,Activity,[3],Non-toxic
same,IC50,Kasumi 1 [2],2.09 µM
same,IC50,THP-1,40.9 µM
same,Activity,Kasumi 1 [4],Active
same,Activity,Kasumi 1 [5],Active
same,Activity,Kasumi 1 [6],68.99%
same,Activity,Kasumi 1 [7],18.69%
same,Activity,Kasumi 1 [8],12.31%
same,Activity,Kasumi 1 [9],83.88%
same,Activity,Kasumi 1 [10],10.74%
same,Activity,Kasumi 1 [11],5.37%
same,Activity,Kasumi 1 [12],0.02%
same,Activity,Kasumi 1 [13],Active
same,Activity,Kasumi 1 [14],Active
same,Activity,Kasumi 1 [15],Active
same,Activity,Kasumi 1 [16],Active
same,Activity,Kasumi 1 [17],Active
same,Activity,Kasumi 1 [18],Active
same,Activity,Kasumi 1 [19],Active
same,Activity,Kasumi 1 [20],Active
same,Activity,Kasumi 1 [21],Active
same,Activity,Kasumi 1 [22],Active
same,Activity,Kasumi 1 [23],Active
same,Activity,Kasumi 1 [24],Active
same,Activity,Kasumi 1 [25],Active
same,Activity,Kasumi 1 [26],Active
same,Activity,Kasumi 1 [27],Active
same,Activity,Kasumi 1 [28],Active
same,Activity,Kasumi 1 [29],Active
same,Activity,Kasumi 1 [30],Active
same,Activity,Kasumi 1 [31],Active
same,Activity,Kasumi 1 [32],Active
same,Activity,Kasumi 1 [33],Active
same,Activity,Kasumi 1 [34],Active
same,Activity,Kasumi 1 [35],Active
same,Activity,Kasumi 1 [36],Active
same,Activity,Kasumi 1 [37],Active
same,Activity,Kasumi 1 [38],Active
same,Activity,Kasumi 1 [39],Active
CCCCCCN1C(=O)C(C23CC4CC(CC(C4)C2)C3)Nc2ccccc21 (configuration not stated),Activity,Kasumi 1 [1],>30%
O=C1C(C23CC4CC(CC(C4)C2)C3)Nc2ccccc2N1c1ccc(OC(F)(F)F)cc1 (configuration not stated),Activity,Kasumi 1 [1],>30%
O=C1C(C23CC4CC(CC(C4)C2)C3)Nc2ccccc2N1Cc1cccc(-c2ccccc2)c1 (configuration not stated),Activity,Kasumi 1 [1],>30%
Cc1ccccc1CN1C(=O)C(C23CC4CC(CC(C4)C2)C3)Nc2ccccc21 (configuration not stated),Activity,Kasumi 1 [1],>30%
O=C1C(C23CC4CC(CC(C4)C2)C3)Nc2ccccc2N1c1ccc2ccccc2c1 (configuration not stated),Activity,Kasumi 1 [1],>30%
Cc1cc2c(cc1C)N(Cc1ccccc1)C(=O)C(C13CC4CC(CC(C4)C1)C3)N2 (configuration not stated),Activity,Kasumi 1 [1],>30%
CC(C)CCN1C(=O)C(C23CC4CC(CC(C4)C2)C3)Nc2ccccc21 (configuration not stated),Activity,Kasumi 1 [1],>30%
O=C1C(C23CC4CC(CC(C4)C2)C3)Nc2cc3ccccc3cc2N1Cc1ccccc1 (configuration not stated),Activity,Kasumi 1 [1],>30%
O=C1C(C23CC4CC(CC(C4)C2)C3)Nc2cc(Cl)c(Cl)cc2N1Cc1ccccc1 (configuration not stated),Activity,Kasumi 1 [1],>30%
O=C1C(C23CC4CC(CC(C4)C2)C3)Nc2ccccc2N1Cc1ccc(F)cc1 (configuration not stated),Activity,Kasumi 1 [1],>30%
